Like-named read-outs stand apart in the source and are kept apart here. Some results are limits rather than exact numbers.

Type in all cases: biochemical
One assay deals with T1, human α-synuclein (Homo sapiens, UniProt P37840).
T1 construct: made in house; host or cells: E. coli
Description: In vitro Thioflavin T assay of α-synuclein aggregation. The settings on record: for inhibition at 1 µM: compounds at 1 μM. As to the method:
In Vitro Thioflavin T Assay to Determine the Effects of Compounds on α-Synuclein Aggregation.
The ammonium sulfate pellet was washed with an equal volume of 100 mM ammonium acetate in ethanol, pelleted via centrifugation, washed twice with ethanol, dried overnight, resuspended in 10 mM Tris pH 7.4, and passed through a 50 kDa cut-off column. The assay was conducted in 96-well black microplates with a single 2 mm bead in each well, 40 μM ThioflavinT, 1% DMSO, 50 μM α-synuclein, 100 mM sodium chloride, 9.3 mM potassium phosphate pH 7.3, 4.6 mM Tris pH 7.4 (added as the solvent for α-synuclein or independently for controls lacking α-synuclein), and compounds at 1 μM or 50 μM. […] Readings were performed hourly for up to 73 hours. The effect of compounds on α-synuclein aggregation in the assay was determined with data from 40 hours, following the plateau of the fluorescent signal in the untreated (no compound) control wells containing α-synuclein. Fluorescence values for each compound with α-synuclein were first adjusted by subtracting the average fluorescence of the compound in the absence of α-synuclein.

Assay [1] addresses T2, α-synuclein seeded by E. coli CsgA (Homo sapiens, UniProt P37840).
T2 construct: made in house; host or cells: E. coli NEB 3016 slyD::kan (CsgA, pET11d); E. coli (α-synuclein)
The assay is described as follows: In vitro Thioflavin T assay of CsgA-seeded α-synuclein aggregation. How it is done:
In Vitro Thioflavin T Assay to Determine the Effects of Compounds on CsgA-Seeded α-Synuclein Aggregation.
To induce over-expression of CsgA, 0.5 mM IPTG was added to cultures with an optical density at 600 nm (OD600) of 0.8-1, and induced cells were cultured at 37° C. for 1 hour prior to harvest via centrifugation. […] Buffers with imidazole were freshly prepared prior to the protein purification. Purified CsgA was passed through a 30 kDa molecular weight cut-off filter and through a desalting column. All steps of the CsgA purification in the absence of guanidine hydrochloride were conducted in rapid succession with as little delay as possible. […] The ammonium sulfate pellet was washed with an equal volume of 100 mM ammonium acetate in ethanol, pelleted via centrifugation, washed twice with ethanol, dried overnight, resuspended in 10 mM Tris pH 7.4, and passed through a 50 kDa cut-off column. The assay was conducted in 96-well black microplates with a single glass 2 mm bead per well, 40 μM ThioflavinT, 1% DMSO, 2 μM CsgA, 50 μM α-synuclein, 100 mM sodium chloride, 9.3 mM potassium phosphate pH 7.3, and compounds at 50 μM. […] The effect of compounds on CsgA-seeded α-synuclein aggregation in the assay was determined with data from 40 hours, following the plateau of the fluorescent signal in the untreated (no compound) control wells containing CsgA and α-synuclein. Fluorescence values for each compound with CsgA and α-synuclein were first adjusted by subtracting the average fluorescence of the compound in the absence of CsgA and α-synuclein.

The target of another assay is T3, E. coli CsgA (Escherichia coli, UniProt P28307).
T3 construct: made in house; host or cells: E. coli NEB 3016 slyD::kan, pET11d
T3 sequence (P28307 23-151): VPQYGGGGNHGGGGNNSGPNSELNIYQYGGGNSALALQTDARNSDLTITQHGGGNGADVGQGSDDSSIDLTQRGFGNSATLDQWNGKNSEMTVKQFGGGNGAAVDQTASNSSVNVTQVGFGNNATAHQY
Description: In vitro ThioflavinT assay of CsgA aggregation. The settings on record: for Inhibition of Aggregation CsgA (compound activity range) / Effect on CsgA aggregation (in words): compounds at 20 μM; for Inhibition of Aggregation CsgA (compound activity range) / inhibition at 20 µM: CsgA at 20 μM, ThT fluorescence at 18 hours; for Inhibition of Aggregation CsgA (compound activity range): 20 µM. As to the method:
In Vitro ThioflavinT Assay to Determine Effects of Compounds on CsgA Aggregation.
To assess the effects of compounds on aggregation of E. coli CsgA, a cell-free assay was performed using purified CsgA and Thioflavin T. In the assay, histidine-tagged CsgA was over-expressed in E. coli NEB 3016 slyD::kan cells harboring a pET11d vector containing csgA with the sequence for 6 histidine residues added to the C-terminus and without the Sec signal (amino acid 1-22) sequence. To induce over-expression of CsgA, 0.5 mM isopropyl β-D-1-thiogalactopyranoside (“IPTG”) was added to cultures with an optical density at 600 nm (OD600) of 0.8-1, and induced cells were cultured at 37° C. for 1 hour prior to harvest via centrifugation. Cells were lysed under denaturing conditions with 8 M guanidine hydrochloride in 50 mM potassium phosphate buffer pH 7.3, and CsgA was purified via immobilized-metal affinity chromatography by batch purification with Nickel-NTA agarose and a combination of low pressure and gravity flow through a disposable polypropylene column, including washes under low pressure applied manually via application of a syringe plunger to the column with 50 mM potassium phosphate buffer pH 7.3 followed by 12.5 mM imidazole in 50 mM potassium phosphate buffer pH 7.3, and elution by gravity flow with 125 mM imidazole in 50 mM potassium phosphate buffer pH 7.3. Buffers with imidazole were freshly prepared prior to the protein purification. Purified CsgA was passed through a 30 kDa molecular weight cut-off filter and passed through a desalting column. All steps of the CsgA purification in the absence of guanidine hydrochloride were conducted in rapid succession with as little delay as possible. The assay was conducted in 96-well black microplates with 40 μM ThioflavinT, 1% DMSO, CsgA at 20 μM, and compounds at 20 μM. Plates were incubated at 25° C. in a Tecan Nano F200 plate reader with excitation at 438 nm using a 439 nm filter with a bandwidth of 8 nm, and emission at 495 nm with a 490 nm filter with a bandwidth of 10 nm. During the assay, plates were shaken initially for 5 seconds and subsequently for 3 seconds prior to fluorescent readings. Readings were performed every 20 minutes for up to 24 hours. The effect of compounds on CsgA aggregation in the assay was determined with data from 18 hours, following the plateau of the fluorescent signal in the untreated (no compound) control wells containing CsgA. Fluorescence values for each compound with CsgA were first adjusted by subtracting the average fluorescence of the compound in the absence of CsgA. These adjusted values were normalized by dividing them by the average fluorescence in the no-compound (i.e., untreated) control wells containing CsgA […], and the average normalized fluorescence with the compound was expressed as a percentage of the average fluorescence observed in untreated controls.

The mark [2] stands for this setting: compounds at 50 μM, 50 μM α-synuclein, ThT fluorescence at 40 hours, read-out: Inhibition of Aggregation αSyn.
Setting [3] is: compounds at 50 μM, 50 μM α-synuclein, ThT fluorescence at 40 hours, read-out: Inhibition of Aggregation αSyn (compound activity range).
Setting [4] is: compounds at 50 μM, 2 μM CsgA, 50 μM α-synuclein, ThT fluorescence at 40 hours, read-out: Inhibition of Aggregation CsgA-seeded αSyn.
The mark [5] stands for this setting: read-out: Inhibition of Aggregation CsgA (compound activity range), compounds at 20 μM.
[6] abbreviates: read-out: Inhibition of Aggregation CsgA, compounds at 20 μM.
Setting [7] is: read-out: Inhibition of Aggregation CsgA-seeded αSyn.
Where [8] appears, read: read-out: Inhibition of Aggregation CsgA-seeded αSyn (compound activity range).
[9] abbreviates: 50 μM α-synuclein, ThT fluorescence at 40 hours, read-out: Inhibition of Aggregation αSyn.
Setting [10] is: 50 μM α-synuclein, ThT fluorescence at 40 hours, read-out: Inhibition of Aggregation αSyn (compound activity range).
[11] abbreviates: compounds at 50 μM, 2 μM CsgA, 50 μM α-synuclein, ThT fluorescence at 40 hours, read-out: Inhibition of Aggregation CsgA-seeded αSyn (compound activity range).
Where [12] appears, read: read-out: Inhibition of Aggregation αSyn.
The mark [13] stands for this setting: read-out: Inhibition of Aggregation αSyn (compound activity range).

By inhibition is commonly meant the relative decrease from the control value, in per cent. For `COc1cc(O)ccc1O` [methoxy-hydroquinone, 2-methoxybenzene-1,4-diol], the results for the inhibition at 50 µM (on human α-synuclein (setting [2]); on human α-synuclein (setting [3]); in assay [1] (setting [4])) were 100%, above 60% and 80%, respectively. On E. coli CsgA, the “Inhibition of Aggregation CsgA (compound activity range)” value is “(++) to (+++)”. Moreover, the results for the inhibition at 20 µM on E. coli CsgA (setting [5]) and on E. coli CsgA (setting [6]) were 30 to 60% and 50%, respectively.

Consider `CCc1ccc(O)c(OC)c1` [4-ethyl guaiacol, 4-ethyl-2-methoxyphenol], for which the inhibition at 50 µM at human α-synuclein (setting [2]) is -2%; at human α-synuclein (setting [3]), -10 to 10%; in assay [1] (setting [7]), -10%; in assay [1] (setting [8]) it was 30 to 60%. Further, the “Effect on CsgA aggregation (in words)” value on E. coli CsgA is given as “relatively strong enhancement of CsgA aggregation”. Further, the inhibition at 20 µM on E. coli CsgA (setting [6]) was -82%.

With `O=C(/C=C/c1ccc(O)c(O)c1)O[C@H](Cc1ccc(O)c(O)c1)C(=O)O` [rosmarinic acid], the inhibition at 1 µM is 99% on human α-synuclein (setting [9]) and above 60% at human α-synuclein (setting [10]). In addition, the inhibition at 20 µM was 30 to 60% at E. coli CsgA (setting [5]) and 48% at E. coli CsgA (setting [6]).

Take `O=C(O)c1cc(O)c(O)c(O)c1` [gallic acid, 3,4,5-trihydroxybenzoic acid]: the inhibition at 50 µM at human α-synuclein (setting [2]) is 99%; on human α-synuclein (setting [3]), above 60%; in assay [1] (setting [4]), 63%. The “Inhibition of Aggregation CsgA (compound activity range)” value at E. coli CsgA is reported as “(++) to (+++)”. Also, the inhibition at 20 µM on E. coli CsgA (setting [5]) was above 60%; at E. coli CsgA (setting [6]), 82%.

As to `O=c1c(-c2ccc(O)cc2)coc2cc(O)cc(O)c12` [genistein, 5,7-dihydroxy-3-(4-hydroxyphenyl)chromen-4-one], the figures for the inhibition at 1 µM on human α-synuclein (setting [9]) and on human α-synuclein (setting [10]) were 40% and 30 to 60%, respectively.

With `C/C=C/c1ccc(O)c(OC)c1` [isoeugenol, 2-methoxy-4-(prop-1-en-1-yl)phenol], the “Effect on α-synuclein aggregation (in words)” value at human α-synuclein (compounds at 50 μM) is on record as “without notable inhibition”. Moreover, the inhibition at 50 µM was 9% on human α-synuclein (setting [2]), -10 to 10% at human α-synuclein (setting [3]), 35% in assay [1] (setting [4]) and 30 to 60% in assay [1] (setting [11]). The “Effect on CsgA-seeded α-synuclein aggregation (in words)” value in assay [1] (compounds at 50 μM) is “demonstrated inhibition”. Besides, the “Effect on CsgA aggregation (in words)” value at E. coli CsgA was “without notable inhibition”. Further, the inhibition at 20 µM at E. coli CsgA (setting [5]) is -10 to 10%; on E. coli CsgA (setting [6]), -4%.

Take `C=CCc1ccc(O)c(OC)c1` [eugenol, 2-methoxy-4-(prop-2-en-1-yl)phenol]: the “Effect on α-synuclein aggregation (in words)” value on human α-synuclein (compounds at 50 μM) is “without notable inhibition”. The inhibition at 50 µM on human α-synuclein (setting [12]) is -1%; on human α-synuclein (setting [13]) it was -10 to 10%; in assay [1] (setting [7]) it was 42%; in assay [1] (setting [8]) it was 30 to 60%. The “Effect on CsgA-seeded α-synuclein aggregation (in words)” value in assay [1] (compounds at 50 μM) is “demonstrated inhibition”. The “Effect on CsgA aggregation (in words)” value at E. coli CsgA is “without notable inhibition”. Also, the inhibition at 20 µM at E. coli CsgA (setting [6]) is -10%.

Take `CCCCCCCCCCCCOC(=O)c1cc(O)c(O)c(O)c1` [lauryl gallate, dodecyl 3,4,5-trihydroxybenzoate]: the inhibition at 50 µM at human α-synuclein (setting [2]) is 33%; on human α-synuclein (setting [3]) it was 30 to 60%; in assay [1] (setting [4]) it was 24%; in assay [1] (setting [11]) it was 10 to 30%. Moreover, in assay [1] (compounds at 50 μM, 2 μM CsgA, 50 μM α-synuclein, ThT fluorescence at 40 hours), the “Inhibition of Aggregation CsgA-seeded αSyn (compound activity range)” value was “+%”. Further, the “Effect on CsgA aggregation (in words)” value at E. coli CsgA is on record as “did not appear to inhibit CsgA aggregation”. The inhibition at 20 µM at E. coli CsgA (setting [5]) is -10 to 10%; at E. coli CsgA (setting [6]) it was 1%.

Consider `O=c1c(O)c(-c2ccc(O)c(O)c2)oc2cc(O)cc(O)c12` [quercetin, 2-(3,4-dihydroxyphenyl)-3,5,7-trihydroxychromen-4-one], for which the values for the inhibition at 1 µM on human α-synuclein (setting [9]) and at human α-synuclein (setting [10]) were 99% and above 60%, respectively. Besides, the inhibition at 20 µM is 30 to 60% on E. coli CsgA (setting [5]) and 33% at E. coli CsgA (setting [6]).

For `Oc1ccc(/C=C/c2cc(O)cc(O)c2)cc1` [resveratrol, (E)-5-(4-hydroxystyryl)benzene-1,3-diol], the inhibition at 1 µM on human α-synuclein (setting [9]) was 86%; at human α-synuclein (setting [10]), above 60%. The “Inhibition of Aggregation CsgA (compound activity range)” value on E. coli CsgA was “(+++) to (++)”. Besides, the values for the inhibition at 20 µM at E. coli CsgA (setting [5]) and at E. coli CsgA (setting [6]) were above 60% and 62%, respectively.

As to `Brc1cccc(-c2cc(-c3ccc4c(c3)OCO4)n[nH]2)c1` [Anle 138b, reference compound], the “Effect on CsgA aggregation (in words)” value on E. coli CsgA was “relatively little to no effect”. The inhibition at 20 µM at E. coli CsgA (setting [5]) is -10 to 10%; on E. coli CsgA (setting [6]), 9%.

For `COc1cc(/C=C/C(=O)/C=C(O)/C=C/c2ccc(O)c(OC)c2)ccc1O` [curcumin, (1E,6E)-1,7-Bis(4-hydroxy-3-methoxyphenyl)hepta-1,6-diene-3,5-dione], the inhibition at 50 µM is 89% on human α-synuclein (setting [12]), above 60% at human α-synuclein (setting [13]) and 86% in assay [1] (setting [4]).

For `O=c1cc(-c2ccc(O)cc2)oc2cc(O)cc(O)c12` [apigenin, 5,7-dihydroxy-2-(4-hydroxyphenyl)-4H-1-benzopyran-4-one], the results for the inhibition at 1 µM at human α-synuclein (setting [9]) and at human α-synuclein (setting [10]) were 56% and 30 to 60%, respectively.

The values above are taken from patent US11147792B2, “Inhibitors of microbially induced amyloid” (Axial Therapeutics, Inc, priority 2017, dated 2021).
